From patent US6653529B2, “Use of the maize X112 mutant ahas 2 gene and imidazolinone herbicides for selection of transgenic monocots, maize, rice and wheat plants resistant to the imidazolinone herbicides” (BASF Aktiengesellschaft, priority 2000, dated 2003)

Columns and labels:
[1] = system: T1 corn plants of 1B1 (self and B73×1B1); test: Spray test of T1 progeny of transgenic corn plant 1B1; assay type: in vivo; settings: 4× (250 ai g/ha) at 3-leaf stage; 6 self and 8 B73×1B1 T1 plants
Description: Transgenic corn plants were evaluated in the greenhouse for resistant levels to various imidazolinone herbicides and inheritance of the transgene. For corn, our protocol involved self- or cross-pollinating the transgenic plants for 2 to 3 generations and spraying T1 progeny plants to identify the resistant vs. susceptible plants. Detailed analysis for levels of herbicide resistance and the inheritance pattern. Identification of lines homozygous for the transgene is carried out in T2 generation with self-pollination and cross-pollination derived progeny plants. […] B73 and Mo17 lines were obtained USDA/ARS and Crop Sciences, UIUC, Urbana, Ill. 61801-4798. T1 plants were treated with 4×PURSUIT® imazethapyr (250 ai g/ha) at 3-leaf stage and rated as either resistant or susceptible to the herbicide. A total of 6 self and 8 B73×1B1 T1 plants were sprayed and all survived the herbicide treatments.

[2] = system: transgenic rice Line 29 (maize XI12 ahas2 gene); test: Greenhouse spray test of rice with PURSUIT imazethapyr (pre- and post-emergence); assay type: in vivo
[3] = system: immature embryos of transgenic homozygous T2 plants (26-4); test: In vitro callus induction and growth from immature embryos on imazethapyr; assay type: cell-based, rice
Description: (§1) Immature embryos (12-14 days after fertilization) were dissected from transgenic homozygous T2 plants, identified as 26-4 in FIG. 1, or seed-grown Nortai plants and placed in N6 basal medium (Chiu et al., Sci. Sin 18:659-68, 1975) supplemented with 2 mg/l 2,4-D, 3% sucrose, 0.6% agarose (3SN6d2) amended with 0, 0.01, 0.033, 0.1, 0.3, 1.0, 3.3, 10, 25, or 50 μM imazethapyr (AC263,499). Five embryos were placed on one 10×60 mm Petri dish with two to three plates for each concentration as replications. Three weeks later, in vitro cellular response was monitored by measuring the fresh weight of callus derived from individual embryos.

[4] = system: immature embryos of Nortai plants (control); test: as above; assay type: cell-based, rice
Description: as §1

[5] = system: transgenic wheat plants (0407-1 and progeny); test: Greenhouse spray test of wheat with RAPTOR imazamox; assay type: in vivo
From the text: Sow seed to 3×5-cell flats at about 10 seed per cell. Grow the plants for about two weeks. On the day of spraying, water plants well and let excess water drip out. Spray plants on a belt-sprayer with the imidazolinone herbicides at desired rates. […] Resume regular water schedule three days after spraying. Closely observe the plants for the next two to four weeks. Symptoms of herbicide injury will be visible two weeks after spraying and susceptible plants will die four to six weeks later. We usually measure plant height and score the plant morphology with a 0 to 10 rating with 0 for dead plants and 10 for healthy plants with no or minimum injury.
Wheat transformation efficiency, calculated as percent of immature embryos produced at least one imidazolinone-resistant transgenic plant ranged from 0.4 to 3.1% (Table 7). A fertile regenerant 0407-1 generated from early transformation experiment with Agrobacterium (LBA4404) containing pAC1558 was evaluated for resistance to RAPTOR® imazamox post emergence. Untransformed Ciccio and Closseo plants were very sensitive to RAPTOR® imazamox and dead at very low rate.
We also analyzed T2 progeny plants from one of the best lines of 0407-1-10. T2 seeds were planted at 10 seeds per pot and two pots per line were sprayed at 0, 10, 20, 30, 40 and 50 g/ha RAPTOR® imazamox. Most plants did show an increase in resistance over non-transformed control (FIG. 6B).

[6] = post-emergence, Rate 63 (g ai/ha)
[7] = post-emergence, Rate 125 (g ai/ha)
[8] = post-emergence, Rate 250 (g ai/ha)

CCc1cnc(C2=NC(C)(C(C)C)C(=O)N2)c(C(=O)O)c1 (stereo not drawn) [PURSUIT ®, imazethapyr]
survival of T1 plants [1]: all survived | No. panicles/plant Mean [2, 6]: 27.7 | No. tillers/plant Mean [2, 6]: 34.5 | Plant height Mean [2, 6]: 112.5 cm | Yield % 0× [2, 6]: 93 % 0× | Yield Mean [2, 6]: 199.0 g/5 plants | No. panicles/plant Mean [2, 7]: 24.5 | No. tillers/plant Mean [2, 7]: 28.3 | Plant height Mean [2, 7]: 114.1 cm | Yield % 0× [2, 7]: 113 % 0× | Yield Mean [2, 7]: 240.7 g/5 plants | No. panicles/plant Mean [2, 8]: 23.0 | No. tillers/plant Mean [2, 8]: 24.1 | Plant height Mean [2, 8]: 110.2 cm | Yield % 0× [2, 8]: 93 % 0× | Yield Mean [2, 8]: 197.3 g/5 plants | No. panicles/plant Mean ([2]; pre-emergence, 63 g/ha): 15.6 | No. tillers/plant Mean ([2]; pre-emergence, 63 g/ha): 16.2 | Plant height Mean ([2]; pre-emergence, 63 g/ha): 92.7 cm | Yield % 0× ([2]; pre-emergence, 63 g/ha): 93 % 0× | Yield Mean ([2]; pre-emergence, 63 g/ha): 156.3 g/5 plants | No. panicles/plant Mean ([2]; pre-emergence, 125 g/ha): 16.3 | No. tillers/plant Mean ([2]; pre-emergence, 125 g/ha): 14.3 | Plant height Mean ([2]; pre-emergence, 125 g/ha): 95.1 cm | Yield % 0× ([2]; pre-emergence, 125 g/ha): 99 % 0× | Yield Mean ([2]; pre-emergence, 125 g/ha): 166.7 g/5 plants | No. panicles/plant Mean ([2]; pre-emergence, 250 g/ha): 16.2 | No. tillers/plant Mean ([2]; pre-emergence, 250 g/ha): 16.3 | Plant height Mean ([2]; pre-emergence, 250 g/ha): 93.1 cm | Yield % 0× ([2]; pre-emergence, 250 g/ha): 92 % 0× | Yield Mean ([2]; pre-emergence, 250 g/ha): 155.3 g/5 plants | concentration up to which callus induction and growth were normal ([3]; transgenic embryos): up to 1 μM | concentration with no callus induction ([3]; transgenic embryos): 10 µM | reduction in growth ([3]; transgenic embryos, 3.3 μM): about 50% | increase in resistance to imazethapyr in vitro ([3]; transgenic vs untransformed, immature embryos (also suspension cells / cell lines)): 100 fold | growth (reduced to) on imazethapyr ([4]; 0.03 μM): less than 50% | concentration at which callus induction was totally inhibited ([4]; 3 weeks): 0.1 µM

COCc1cnc(C2=NC(C)(C(C)C)C(=O)N2)c(C(=O)O)c1 (stereo not drawn) [RAPTOR ®, imazamox]
reduction of plant height of resistant transgenic plants ([5]; 20 g/ha, T2 progeny of 0407-1-10): about 25% | T1 transgenic plants dead, out of 288 ([5]; 50 g/ha): 218 | T1 transgenic plants that survived, out of 288 ([5]; 50 g/ha): 70 | stunting of resistant plants ([5]; 50 g/ha, T1): 33-70% | increase of tolerance in transgenic wheat plants ([5]; in vivo): 5 ×
